No end group written: not given here.
Legend:
[1] = test system: human red blood cells; details: human red blood cells; cited from earlier work
Excerpt: Cathelicidins have been isolated from many vertebrate taxa[34]–[37]. However, they have undergone gene expansion in marsupials due to the need for additional protection of immunologically naïve young during development in the pouch. […] During development within the pouch, young are exposed to diverse microbial flora, some of which are pathogenic. This has likely encouraged the lineage-specific expansion of cathelicidins in marsupials, resulting in mult ...

[2] = test system: DFT1 1426 cells; assay: RNAseq differential gene expression in peptide-treated DFT1 1426 cells; type: cell-based, Tasmanian devil (Sarcophilus harrisii); details: 500 μg/mL, 10 h, n = 3, vs vehicle control
Experimental: RNAseq was used to characterize the mechanisms underlying the anticancer activity of the peptides. Confluent DFT1 1426 cells (passage number 25) were re-suspended at a concentration of 5 × 10^5 cells/ml and 1 mL seeded into each well of a sterile flat-bottom polystyrene 12-well plate (Corning). Following incubation for 24 h at 35 °C 5% CO2, media was aspirated from the cells and replaced with 500 μL of RPMI 1640 with 2 mM L-glutamine, 10% FBS and 10% AmnioMax II. 500 μL of each 1 mg/mL peptide solution (Saha-CATH1 to 7) was then added to the plate in triplicate, to give a final peptide concentration of 500 μg/mL. […] A vehicle control was also added to the plate in triplicate.
The plate was then incubated for a further 10 h at 35 °C in 5% CO2. This incubation period was selected as the cytotoxicity assay indicated it was sublethal for most of the peptides and would maintain sufficient cell viability to extract intact RNA. Media was then aspirated from the cells, which were washed twice with Dulbecco’s phosphate buffered saline (DPBS) (Sigma-Aldrich).
Total RNA was extracted from each replicate of the peptide-treated and vehicle control cells (n = 3) using the RNeasy mini kit (Qiagen) with cell lysis directly in each well of the 12 well plate. Total RNA was quality assessed using the RNA nano 6000 kit on the Agilent Bioanalyzer with all samples displaying a RIN score between 5 and 9. In total, 24 RNA samples corresponding to three treatments per peptide (Saha-CATH1 to 7) and a vehicle control were submitted to Ramaciotti Centre for Genomics (The University of New South Wales) for sequencing. Illumina TruSeq mRNA libraries were prepared for all samples, which were sequenced as 2 × 150 bp paired-end reads across an SP flowcell on the NovaSeq6000.
Raw reads were quality assessed using FastQC v0.11.8[47], then quality and length trimmed using Trimmomatic v0.39[48] using default parameters. Trimmed reads for each treatment (n = 3) and the control (n = 3) were aligned to the Tasmanian devil reference genome v7.0 (NCBI: GCA_000189315.1[49] using STAR v2.7.8a[50]. Alignments for each treatment were summarized into gene counts using featureCounts in the subread package v1.5.1[51].
Gene counts were used as input for differential expression analysis in R[52]. Genes with less than 50 counts across all samples were removed from the analysis, as these were unlikely to be biologically relevant and lacked sufficient statistical power. Firstly, the data was normalized by trimmed mean of M values (TMM) using edgeR v3.32.1[53] to account for any composition bias between libraries and to give an effective library size for downstream analysis. Multidimensional scaling (MDS) was used to check for variation between treatments using limma v3.36.0[54]. Expression levels were then normalized using upper-quartile normalization in EDAseq v2.24.0[55] to account for differences in distribution between lanes, such as sequencing depth. Differential expression analysis was performed using voom in the limma v3.36.0 package.
(§1) Over-representation analysis of Biological Processes was conducted in clusterProfiler v3.18.1[57]. Statistical significance was adjusted for multiple comparisons using the Benjamini–Hochberg method, and terms were considered significant when p-adj < 0.05. To remove general terms, gene sets larger than 200 were removed, and the simplify function was used to remove redundant GO terms. Further pathway analysis was conducted in IPA (Qiagen)[58], using mammal as the species type and nervous system for the tissue/cell type.

[3] = test system: human cell line A549; details: 500 µg/mL; cited from earlier work
Experimental: Here we aimed to identify cathelicidin candidates for future development as anti-DFTD therapeutics. Four Tasmanian devil cathelicidins (Saha-CATH3, 4, 5 and 6) were toxic to DFT1 1426 cells at high concentrations: Saha-CATH3 at concentrations ≥ 62.5 µg/mL; Saha-CATH4 at 500 µg/mL; Saha-CATH5 at concentrations ≥ 125 µg/mL and Saha-CATH6 at concentrations ≥ 250 µg/mL. Previous studies have shown that two of these peptides (Saha-CATH3 and 4) are non-toxic to human cell line A549[44]. The other two (Saha-CATH5 and 6) reduced cell viability at high concentrations (500 µg/mL), resulting in 42% and 5 ...

[4] = test system: DFT1 1426 cells; type: cell-based, Tasmanian devil (Sarcophilus harrisii)
Experimental: The DFT1 cell line 1426, derived from a primary DFT1 tumour, was obtained from Menzies Institute for Medical Research, University of Tasmania. The cell line was maintained in RPMI 1640 media with 2 mM L-glutamine (Gibco) supplemented with 10% AmnioMax II (Gibco), 10% heat-inactivated foetal bovine serum (FBS) and 1% penicillin/streptomycin (Sigma-Aldrich), in T75 flasks (Nunc) at 35 °C 5% CO2. Cells were passaged using trypsin–EDTA (Sigma-Aldrich) when 90% confluent.
Toxicity of seven Tasmanian devil cathelicidins against DFT1 1426 cells was determined for twofold dilutions from 500 to 15.62 µg/mL, and four different timepoints (12, 18, 24 and 36 h). Confluent DFT1 1426 cells (passage 22) were re-suspended in RPMI 1640 with 10% FBS and 10% AmnioMax II at a concentration of 5 × 10^5 cells/mL, and 100μL seeded into each well of a sterile flat-bottom 96 well plate (Corning), with individual plates for each timepoint (12, 18, 24 and 36 h). All plates were incubated for 24 h at 35 °C 5% CO2 prior to the cytotoxicity test.
At 0 h, 100 μL of each peptide dilution was then added to each plate in quadruplicate for all timepoints (12, 18, 24 and 36 h), resulting in a final peptide concentrations of 500 μg/mL, 250 μg/mL, 125 μg/mL, 62.50 μg/mL, 31.25 μg/mL and 15.62 μg/mL. […] An untreated growth control of RPMI 1640, a positive control of dimethylsulfoxide (DMSO) (15%) and sterility control of RPMI 1640 only (no cells) were also included for each time point.
For the 12 h timepoint, 10% alamarBlue was immediately added to each well of the plate after addition of the peptide. For the remaining timepoints, plates were incubated for an additional 6, 12 or 24 h after addition of the peptides, then 10% alamarBlue added to each well. For all timepoints, after the addition of alamarBlue cells were incubated for a further 12 h, resulting in a total peptide incubation period of 12, 18, 24 and 36 h. Absorbance of alamarBlue for all timepoints was determined at 570 nm and 630 nm on a Biotek 800 TS microplate reader. Cell viability was calculated according to manufacturer’s instructions and expressed as a percentage of cell survival compared to the untreated growth control.
A one-sample, one-tailed t-test was used to test for significant difference in viability between treated cells and the negative growth control. A one sample, two-tailed t-test was also conducted to ensure there was no significant difference in viability between the negative growth control and the cells treated with the solvent only. Statistical analysis was conducted in R (R Development Core Team 2021).

[5] = test system: DFT1 1426 cells; assay: Ingenuity Pathway Analysis (canonical pathways) of DE genes in treated DFT1 1426 cells; type: cell-based, Tasmanian devil (Sarcophilus harrisii); details: DE genes of cells treated with 500 μg/mL for 10 h
Experimental: as §1

KRIRFFERIRDRLRDLGNRIKNRIRDFFS [Saha-CATH6]
concentration at which moderately haemolytic [1]: above 250 μg/mL
Fold change (FC), ATF3 ([2]; RNAseq): 5.02
Fold change (FC), CHOP (DDIT3) ([2]; RNAseq): 1.91
Fold change (FC), GADD34 (PPP1R15A) ([2]; RNAseq): 2.14
Fold change, gene IL1R1 ([2]; cytokine receptor, RNAseq): 2.29
Fold change, gene IL6R ([2]; cytokine receptor, RNAseq): 1.70
Fold change, gene IL21R ([2]; cytokine receptor, RNAseq): 1.58
Fold change, gene IL6 ([2]; cytokine, RNAseq): 11.14
Fold change, gene MYD88 ([2]; immune signaling, RNAseq): 1.78
percentage of DE genes ([2]; of 15,548 genes): 15.56%
Fold change, gene RUNX1 ([2]; transcription factor, RNAseq): 1.61
cell survival of human cell line A549 [3]: 59%
decrease in cell viability compared to the growth control ([4]; 500 μg/mL, 36 h, DFT1 1426 cells, alamarBlue, quadruplicate): more than 50%
incubation period required before exhibiting a similar level of toxicity to Saha-CATH5 ([4]; 500 μg/mL, DFT1 1426 cells): 18 h
cell viability (% of untreated growth control) ([4]; 500 µg/mL, after 18 h, mean of quadruplicate): 0%
cytotoxic concentration (cell viability reduced by more than 50%) ([4]; 18 h): ≥ 250 µg/mL
concentration toxic to DFT1 1426 cells ([4]; summary in the discussion): ≥ 250 µg/mL
IPA z-score, EIF2 signaling [5]: 4.352
IPA z-score, Th17 activation pathway [5]: 2.53

— article PMC10403513, “Tasmanian devil cathelicidins exhibit anticancer activity against Devil Facial Tumour Disease (DFTD) cells” (Scientific Reports, 2023)
